Test results published in patent US7880007B2, “Bicyclic substituted phenyl piperidine modulators of muscarinic receptors” (Vertex Pharmaceuticals Incorporated, priority 2004, dated 2011).

What was measured:
Type in all cases: cell-based
M4 muscarinic receptor = target: T1, M4 muscarinic receptor (Homo sapiens, UniProt P08173); assay: Functional mobilization of intracellular calcium (FLIPR), M4-CHO cells; details: for M4 Activity: M4-CHO cells, calcium mobilization (FLIPR)
T1 construct: expressed in transfected cells; host or cells: CHO (M4-CHO)
T1 sequence (P08173 1-479): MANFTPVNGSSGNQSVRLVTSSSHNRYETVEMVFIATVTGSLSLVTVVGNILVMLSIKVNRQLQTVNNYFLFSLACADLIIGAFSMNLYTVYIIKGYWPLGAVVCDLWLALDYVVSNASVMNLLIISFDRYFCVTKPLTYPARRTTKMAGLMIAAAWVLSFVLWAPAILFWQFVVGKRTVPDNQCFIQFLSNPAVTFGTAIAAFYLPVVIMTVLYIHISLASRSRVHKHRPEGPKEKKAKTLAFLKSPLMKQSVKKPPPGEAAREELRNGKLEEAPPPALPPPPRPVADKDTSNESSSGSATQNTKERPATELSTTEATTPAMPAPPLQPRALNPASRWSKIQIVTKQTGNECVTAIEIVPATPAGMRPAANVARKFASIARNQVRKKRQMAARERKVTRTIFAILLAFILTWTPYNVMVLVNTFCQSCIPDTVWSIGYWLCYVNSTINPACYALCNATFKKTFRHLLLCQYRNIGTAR
How it was run: (§1)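 Calcium mobilisation read by FLIPR over 60 s (ex 488/em 540 nm) in recombinant muscarinic CHO lines loaded with calcium dye plus 1 mM probenecid. Compounds tested as agonists alone, or as inhibitors against EC80 carbachol after 15 min pre-incubation or co-addition; 0.5% DMSO; efficacy scaled to carbachol maximal response.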

M1 muscarinic receptor = target: T2, M1 muscarinic receptor (Homo sapiens, UniProt P11229); assay: Functional mobilization of intracellular calcium (FLIPR), M1-CHO cells; details: for M1 Activity: M1-CHO cells, calcium mobilization (FLIPR)
T2 construct: expressed in transfected cells; host or cells: CHO (M1-CHO)
T2 sequence (P11229 1-460): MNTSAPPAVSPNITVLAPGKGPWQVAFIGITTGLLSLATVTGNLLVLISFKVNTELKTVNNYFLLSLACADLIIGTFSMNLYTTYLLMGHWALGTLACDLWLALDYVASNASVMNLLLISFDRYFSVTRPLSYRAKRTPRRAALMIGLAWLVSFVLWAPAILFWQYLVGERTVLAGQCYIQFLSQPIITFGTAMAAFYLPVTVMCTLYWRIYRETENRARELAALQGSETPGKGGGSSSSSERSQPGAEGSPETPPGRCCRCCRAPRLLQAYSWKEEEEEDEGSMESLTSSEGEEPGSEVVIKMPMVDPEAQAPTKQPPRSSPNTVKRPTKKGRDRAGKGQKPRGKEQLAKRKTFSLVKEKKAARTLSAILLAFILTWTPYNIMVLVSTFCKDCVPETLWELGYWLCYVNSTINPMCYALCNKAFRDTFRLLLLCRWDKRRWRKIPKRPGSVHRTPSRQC
How it was run: as §1

M3 muscarinic receptor = target: T3, M3 muscarinic receptor (Homo sapiens, UniProt P20309); assay: Functional mobilization of intracellular calcium (FLIPR), M3-CHO cells; details: for M3 Activity: M3-CHO cells, calcium mobilization (FLIPR)
T3 construct: expressed in transfected cells; host or cells: CHO (M3-CHO)
How it was run: as §1

M2 muscarinic receptor = target: T4, M2 muscarinic receptor (Homo sapiens, UniProt P08172); assay: Functional mobilization of intracellular calcium (FLIPR), M2-CHO cells; details: for M2 Activity: M2-CHO cells, calcium mobilization (FLIPR)
T4 construct: expressed in transfected cells; host or cells: CHO (M2-CHO)
T4 sequence (P08172 1-466): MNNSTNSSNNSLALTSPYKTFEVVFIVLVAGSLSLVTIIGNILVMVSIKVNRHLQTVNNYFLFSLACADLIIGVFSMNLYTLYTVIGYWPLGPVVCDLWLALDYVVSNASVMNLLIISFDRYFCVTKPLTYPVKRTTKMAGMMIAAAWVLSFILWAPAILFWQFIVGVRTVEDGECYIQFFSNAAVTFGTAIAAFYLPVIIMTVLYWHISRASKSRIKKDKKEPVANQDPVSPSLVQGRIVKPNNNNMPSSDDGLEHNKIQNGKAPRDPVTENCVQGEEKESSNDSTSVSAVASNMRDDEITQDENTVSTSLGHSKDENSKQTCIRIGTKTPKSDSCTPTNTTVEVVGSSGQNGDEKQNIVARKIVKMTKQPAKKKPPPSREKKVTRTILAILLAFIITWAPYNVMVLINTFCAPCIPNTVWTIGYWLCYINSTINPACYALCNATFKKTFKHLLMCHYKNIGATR
How it was run: as §1

[1] = 100% efficacy = maximum response obtained with the Carbachol control
[2] = 100% efficacy is the maximum response obtained with the Carbachol control

T3 sequence (P20309 whole entry): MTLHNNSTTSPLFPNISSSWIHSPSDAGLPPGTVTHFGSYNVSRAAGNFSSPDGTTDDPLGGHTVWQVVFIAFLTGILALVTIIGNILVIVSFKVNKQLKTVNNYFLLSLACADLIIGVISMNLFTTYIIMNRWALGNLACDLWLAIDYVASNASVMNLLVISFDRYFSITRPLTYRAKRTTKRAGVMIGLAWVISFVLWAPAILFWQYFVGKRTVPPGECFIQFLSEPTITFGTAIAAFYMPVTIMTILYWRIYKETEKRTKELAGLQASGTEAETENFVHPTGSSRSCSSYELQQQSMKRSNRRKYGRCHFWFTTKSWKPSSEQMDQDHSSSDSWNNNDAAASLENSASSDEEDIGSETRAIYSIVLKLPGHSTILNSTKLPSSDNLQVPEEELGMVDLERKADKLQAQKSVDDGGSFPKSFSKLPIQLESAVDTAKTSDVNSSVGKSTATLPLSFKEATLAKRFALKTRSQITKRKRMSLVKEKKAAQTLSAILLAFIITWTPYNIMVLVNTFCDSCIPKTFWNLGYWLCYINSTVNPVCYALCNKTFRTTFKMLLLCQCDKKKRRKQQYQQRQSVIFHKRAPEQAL

| Structure (SMILES) | Emax (M4 muscarinic receptor; [1]) [%] | Emax (M1 muscarinic receptor; [1]) [%] | Emax (M3 muscarinic receptor; [1]) [%] | Emax (M2 muscarinic receptor; [1]) [%] | M4 Activity (M4 muscarinic receptor) | M1 Activity (M1 muscarinic receptor) | M3 Activity (M3 muscarinic receptor) | M2 Activity (M2 muscarinic receptor) | Emax (M4 muscarinic receptor; [2]) [%] | Emax (M1 muscarinic receptor; [2]) [%] | Emax (M3 muscarinic receptor; [2]) [%] | Emax (M2 muscarinic receptor; [2]) [%] | M4 Efficacy (M4 muscarinic receptor; [1]) | M1 Efficacy (M1 muscarinic receptor; [1]) | M3 Efficacy (M3 muscarinic receptor; [1]) | M2 Efficacy (M2 muscarinic receptor; [1]) |
| --- | --- | --- | --- | --- | --- | --- | --- | --- | --- | --- | --- | --- | --- | --- | --- | --- |
| COc1ccc(-c2ccc(C(C)(C)C#N)cc2)cc1C1CCN(C2CCOCC2)CC1 [Compound 192] | 25 to 100 | 25 to 100 | < 25 | < 25 | + (activity was measured to be greater than 5.0 μM) | + (activity was measured to be greater than 5.0 μM) | + (activity was measured to be greater than 5.0 μM) | + (activity was measured to be greater than 5.0 μM) | – | – | – | – | – | – | – | – |
| COc1ccc(-c2ccc(C#N)cc2)cc1C1CCN([C@@H]2C[C@H]3CC[C@H]2C3)CC1 [Compound 383] | – | – | – | – | ++ (activity was measured to be from 1.0 μM to 5.0 μM) | + (activity was measured to be greater than 5.0 μM) | + (activity was measured to be greater than 5.0 μM) | + (activity was measured to be greater than 5.0 μM) | 25 to 100 | 25 to 100 | < 25 | < 25 | – | – | – | – |
| COc1ccccc1C1CCN(CC2CCCOC2)CC1 (stereo not shown) [Compound 2] | 25 to 100 | 25 to 100 | < 25 | < 25 | ++ (activity was measured to be from 1.0 μM to 5.0 μM) | + (activity was measured to be greater than 5.0 μM) | + (activity was measured to be greater than 5.0 μM) | + (activity was measured to be greater than 5.0 μM) | – | – | – | – | – | – | – | – |
| COc1ccc(Cl)cc1C1CCN(C2CCC(=NOC(C)(C)C)CC2)CC1 (stereo not shown) [Compound 130] | – | – | – | – | +++ (activity was measured to be less than 1.0 μM) | ++ (activity was measured to be from 1.0 μM to 5.0 μM) | + (activity was measured to be greater than 5.0 μM) | + (activity was measured to be greater than 5.0 μM) | – | – | – | – | ++ (efficacy was calculated to be from 100% to 25%) | ++ (efficacy was calculated to be from 100% to 25%) | + (efficacy was calculated to be less than 25%) | + (efficacy was calculated to be less than 25%) |
| COc1ccc(-c2ccsc2)cc1C1CCN([C@@H]2C[C@H]3CC[C@H]2C3)CC1 [Compound 414] | – | – | – | – | ++ (activity was measured to be from 1.0 μM to 5.0 μM) | + (activity was measured to be greater than 5.0 μM) | + (activity was measured to be greater than 5.0 μM) | + (activity was measured to be greater than 5.0 μM) | 25 to 100 | < 25 | < 25 | < 25 | – | – | – | – |
| COc1ccc(Cl)cc1C1(O)CCN(C[C@H]2C[C@H]3C=C[C@H]2C3)CC1 [Compound 394] | – | – | – | – | +++ (activity was measured to be less than 1.0 μM) | + (activity was measured to be greater than 5.0 μM) | + (activity was measured to be greater than 5.0 μM) | + (activity was measured to be greater than 5.0 μM) | 25 to 100 | < 25 | < 25 | 25 to 100 | – | – | – | – |
| CCOC(=O)N1C2CCC1CC(N1CCC(OC)(c3cc(Cl)ccc3OC)CC1)C2 (stereo not shown) [Compound 390] | – | – | – | – | +++ (activity was measured to be less than 1.0 μM) | +++ (activity was measured to be less than 1.0 μM) | + (activity was measured to be greater than 5.0 μM) | + (activity was measured to be greater than 5.0 μM) | 25 to 100 | 25 to 100 | < 25 | < 25 | – | – | – | – |
| COc1ccccc1C1CCN(C2CCCC3(CCCCC3)C2)CC1 (stereo not shown) [Compound 199] | < 25 | < 25 | < 25 | < 25 | + (activity was measured to be greater than 5.0 μM) | + (activity was measured to be greater than 5.0 μM) | + (activity was measured to be greater than 5.0 μM) | + (activity was measured to be greater than 5.0 μM) | – | – | – | – | – | – | – | – |

Second part, led by results:

| Emax (M4 muscarinic receptor; [1]) [%] | Emax (M1 muscarinic receptor; [1]) [%] | Emax (M3 muscarinic receptor; [1]) [%] | Emax (M2 muscarinic receptor; [1]) [%] | Structure (SMILES) | M4 Activity (M4 muscarinic receptor) | M1 Activity (M1 muscarinic receptor) | M3 Activity (M3 muscarinic receptor) | M2 Activity (M2 muscarinic receptor) | Emax (M4 muscarinic receptor; [2]) [%] | Emax (M1 muscarinic receptor; [2]) [%] | Emax (M3 muscarinic receptor; [2]) [%] | Emax (M2 muscarinic receptor; [2]) [%] | M4 Efficacy (M4 muscarinic receptor; [1]) | M1 Efficacy (M1 muscarinic receptor; [1]) | M3 Efficacy (M3 muscarinic receptor; [1]) | M2 Efficacy (M2 muscarinic receptor; [1]) |
| --- | --- | --- | --- | --- | --- | --- | --- | --- | --- | --- | --- | --- | --- | --- | --- | --- |
| 25 to 100 | 25 to 100 | < 25 | < 25 | c1cc2c(c(C3CCN(C4C[C@@H]5CC[C@@H]4C5)CC3)c1)OCO2 (stereo partly shown) [Compound 236] | +++ (activity was measured to be less than 1.0 μM) | ++ (activity was measured to be from 1.0 μM to 5.0 μM) | + (activity was measured to be greater than 5.0 μM) | + (activity was measured to be greater than 5.0 μM) | – | – | – | – | – | – | – | – |
| 25 to 100 | 25 to 100 | < 25 | 25 to 100 | COc1ccc(Cl)cc1C1CCN(C2CCC(=O)CC2)CC1 [Compound 273, 4-(4-(5-chloro-2-methoxyphenyl)piperidin-1-yl)cyclohexanone] | +++ (activity was measured to be less than 1.0 μM) | + (activity was measured to be greater than 5.0 μM) | + (activity was measured to be greater than 5.0 μM) | ++ (activity was measured to be from 1.0 μM to 5.0 μM) | – | – | – | – | – | – | – | – |
| 25 to 100 | < 25 | < 25 | < 25 | COc1ccc(C#CC2(O)CCCC2)cc1C1CCN([C@H]2C[C@H]3CC[C@H]2C3)CC1 [Compound 287] | +++ (activity was measured to be less than 1.0 μM) | + (activity was measured to be greater than 5.0 μM) | + (activity was measured to be greater than 5.0 μM) | + (activity was measured to be greater than 5.0 μM) | – | – | – | – | – | – | – | – |
| 25 to 100 | < 25 | < 25 | < 25 | COc1ccccc1[C@@H]1CCN([C@@H]2C[C@H]3CC[C@H]2C3)C[C@H]1O [Compound 154] | + (activity was measured to be greater than 5.0 μM) | + (activity was measured to be greater than 5.0 μM) | + (activity was measured to be greater than 5.0 μM) | + (activity was measured to be greater than 5.0 μM) | – | – | – | – | – | – | – | – |
| 25 to 100 | 25 to 100 | < 25 | < 25 | COc1ccccc1C1CCN([C@@H]2C[C@H]3CC[C@H]2C3)CC1 [Compound 85] | +++ (activity was measured to be less than 1.0 μM) | + (activity was measured to be greater than 5.0 μM) | + (activity was measured to be greater than 5.0 μM) | + (activity was measured to be greater than 5.0 μM) | – | – | – | – | – | – | – | – |
| 25 to 100 | 25 to 100 | < 25 | 25 to 100 | COc1ccc(Br)cc1C1CCN([C@@H]2C[C@@H]3CC[C@H]2C3)CC1 [Compound 187, 1-((1S,2R,4R)-bicyclo[2.2.1]heptan-2-yl)-4-(5-bromo-2-methoxyphenyl)piperidine] | +++ (activity was measured to be less than 1.0 μM) | +++ (activity was measured to be less than 1.0 μM) | + (activity was measured to be greater than 5.0 μM) | ++ (activity was measured to be from 1.0 μM to 5.0 μM) | – | – | – | – | – | – | – | – |
